Results taken from patent publication US8952024B2, “Herbicidal pyrimidone derivatives” (E I du Pont de Nemours and Company, priority 2009, dated 2015).

Assays:
Test in all cases: Test B pre-/postemergence plant response
Format in all cases: in vivo
[1] = system: morningglory (Ipomoea coccinea)
In short: (§1)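 Test compounds, formulated in a non-phytotoxic solvent mixture with surfactant, are applied to the soil surface (loam and sand blend) right after seeding, or sprayed over plants at the 1- to 4-leaf stage grown in peat moss/vermiculite medium. After 13 to 15 days under glasshouse conditions, each species is scored visually from 0 (no effect) to 100 (complete control) against controls.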

[2] = system: green foxtail (Setaria viridis)
In short: as §1

[3] = system: large crabgrass (Digitaria sanguinalis)
In short: as §1

[4] = system: yellow nutsedge (Cyperus esculentus)
In short: as §1

[5] = system: woolly cupgrass (Eriochloa villosa)
In short: as §1

[6] = system: Surinam grass (Brachiaria decumbens)
In short: as §1

[7] = system: blackgrass (Alopecurus myosuroides)
In short: as §1

[8] = system: downy bromegrass (Bromus tectorum)
In short: as §1

[9] = system: lambsquarters (Chenopodium album)
In short: as §1

[10] = system: wild oat (Avena fatua)
In short: as §1

[11] = system: pigweed (Amaranthus retroflexus)
In short: as §1

[12] = system: soybean (Glycine max)
In short: as §1

[13] = system: corn (Zea mays)
In short: as §1

[14] = system: goosegrass (Eleusine indica)
In short: as §1

[15] = system: kochia (Kochia scoparia); details: Postemergence; for Plant response rating, Kochia: scale 0 (no effect) to 100 (complete control)
In short: as §1

[16] = system: velvetleaf (Abutilon theophrasti)
In short: as §1

[17] = system: johnsongrass (Sorghum halepense)
In short: as §1

[18] = 250 g ai/ha, Preemergence, 0 to 100 scale
[19] = Postemergence, 62 g ai/ha, scale 0 (no effect) to 100 (complete control), 13 to 15 days
[20] = Postemergence, 125 g ai/ha, visual rating after 13 to 15 days, scale 0 (no effect) to 100 (complete control)
[21] = Preemergence, 31 g ai/ha, scale 0 to 100 (0 no effect, 100 complete control)
[22] = Preemergence, 62 g ai/ha, scale 0 to 100, 0 no effect, 100 complete control
[23] = Preemergence, 125 g ai/ha, 0 to 100 scale
[24] = Postemergence, 31 g ai/ha, scale 0 to 100 (0 no effect, 100 complete control)
[25] = Postemergence, 250 g ai/ha, scale 0 to 100

O=C1CCCC(O)=C1C(=O)c1cnc(-c2cccc(Cl)c2)n(-c2ccccc2)c1=O [Compound 34]
Plant response rating, Morningglory [1, 18]: 98
Plant response rating, Morningglory [1, 19]: 80
Plant response rating, Morningglory [1, 20]: 85
Plant response rating, Morningglory [1, 21]: 0
Plant response rating, Morningglory [1, 22]: 0
Morningglory plant response rating [1, 23]: 75
Plant response rating, Foxtail, Green [2, 18]: 100
Plant response rating, Foxtail, Green [2, 24]: 70
Plant response rating, Foxtail, Green [2, 19]: 90
Plant response rating, Foxtail, Green [2, 20]: 90
Foxtail, Green plant response rating [2, 25]: 95
Plant response rating, Foxtail, Green [2, 21]: 50
Plant response rating, Foxtail, Green [2, 22]: 70
Foxtail, Green plant response rating [2, 23]: 90
Plant response rating, Crabgrass, Large [3, 18]: 100
Plant response rating, Crabgrass, Large [3, 24]: 80
Plant response rating, Crabgrass, Large [3, 19]: 85
Plant response rating, Crabgrass, Large [3, 20]: 95
Crabgrass, Large plant response rating [3, 25]: 98
Plant response rating, Crabgrass, Large [3, 21]: 55
Plant response rating, Crabgrass, Large [3, 22]: 100
Crabgrass, Large plant response rating [3, 23]: 100
Plant response rating, Nutsedge, Yellow [4, 18]: 90
Plant response rating, Nutsedge, Yellow [4, 19]: 25
Plant response rating, Nutsedge, Yellow [4, 20]: 55
Plant response rating, Nutsedge, Yellow [4, 21]: 10
Plant response rating, Nutsedge, Yellow [4, 22]: 45
Nutsedge, Yellow plant response rating [4, 23]: 75
Plant response rating, Cupgrass, Woolly [5, 18]: 100
Plant response rating, Cupgrass, Woolly [5, 24]: 80
Plant response rating, Cupgrass, Woolly [5, 19]: 80
Plant response rating, Cupgrass, Woolly [5, 20]: 90
Cupgrass, Woolly plant response rating [5, 25]: 95
Plant response rating, Cupgrass, Woolly [5, 21]: 100
Plant response rating, Cupgrass, Woolly [5, 22]: 100
Cupgrass, Woolly plant response rating [5, 23]: 100
Plant response rating, Surinam Grass [6, 18]: 90
Plant response rating, Surinam Grass [6, 19]: 75
Plant response rating, Surinam Grass [6, 20]: 80
Plant response rating, Surinam Grass [6, 21]: 5
Plant response rating, Surinam Grass [6, 22]: 60
Surinam Grass plant response rating [6, 23]: 65
Plant response rating, Blackgrass [7, 18]: 50
Plant response rating, Blackgrass [7, 24]: 0
Plant response rating, Blackgrass [7, 19]: 5
Plant response rating, Blackgrass [7, 20]: 10
Blackgrass plant response rating [7, 25]: 40
Plant response rating, Blackgrass [7, 21]: 0
Plant response rating, Blackgrass [7, 22]: 5
Blackgrass plant response rating [7, 23]: 50
Plant response rating, Bromegrass, Downy [8, 18]: 80
Plant response rating, Bromegrass, Downy [8, 24]: 40
Plant response rating, Bromegrass, Downy [8, 19]: 50
Plant response rating, Bromegrass, Downy [8, 20]: 50
Bromegrass, Downy plant response rating [8, 25]: 50
Plant response rating, Bromegrass, Downy [8, 22]: 0
Bromegrass, Downy plant response rating [8, 23]: 10
Plant response rating, Lambsquarters [9, 18]: 100
Plant response rating, Lambsquarters [9, 19]: 98
Plant response rating, Lambsquarters [9, 20]: 100
Lambsquarters plant response rating [9, 25]: 100
Plant response rating, Lambsquarters [9, 21]: 100
Plant response rating, Lambsquarters [9, 22]: 100
Lambsquarters plant response rating [9, 23]: 100
Plant response rating, Oat, Wild [10, 18]: 60
Plant response rating, Oat, Wild [10, 19]: 50
Plant response rating, Oat, Wild [10, 20]: 60
Plant response rating, Oat, Wild [10, 21]: 10
Plant response rating, Oat, Wild [10, 22]: 10
Oat, Wild plant response rating [10, 23]: 30
Plant response rating, Pigweed [11, 18]: 100
Plant response rating, Pigweed [11, 19]: 90
Plant response rating, Pigweed [11, 20]: 98
Plant response rating, Pigweed [11, 21]: 100
Plant response rating, Pigweed [11, 22]: 100
Pigweed plant response rating [11, 23]: 100
Plant response rating, Soybean [12, 18]: 80
Plant response rating, Soybean [12, 19]: 95
Plant response rating, Soybean [12, 20]: 95
Plant response rating, Soybean [12, 21]: 0
Plant response rating, Soybean [12, 22]: 45
Soybean plant response rating [12, 23]: 65
Plant response rating, Corn [13, 18]: 0
Plant response rating, Corn [13, 24]: 0
Plant response rating, Corn [13, 19]: 0
Plant response rating, Corn [13, 20]: 45
Corn plant response rating [13, 25]: 50
Plant response rating, Corn [13, 21]: 0
Plant response rating, Corn [13, 22]: 0
Corn plant response rating [13, 23]: 0
Plant response rating, Goosegrass [14, 18]: 100
Plant response rating, Goosegrass [14, 19]: 80
Plant response rating, Goosegrass [14, 20]: 90
Goosegrass plant response rating [14, 25]: 95
Plant response rating, Goosegrass [14, 21]: 95
Goosegrass plant response rating [14, 23]: 100
Plant response rating, Kochia ([15]; 62 g ai/ha, 13 to 15 days): 95
Plant response rating, Kochia ([15]; 125 g ai/ha, visual rating after 13 to 15 days): 100
Kochia plant response rating ([15]; 250 g ai/ha, scale 0 to 100): 100
Plant response rating, Velvetleaf [16, 18]: 100
Plant response rating, Velvetleaf [16, 19]: 95
Plant response rating, Velvetleaf [16, 20]: 98
Plant response rating, Velvetleaf [16, 21]: 75
Plant response rating, Velvetleaf [16, 22]: 85
Velvetleaf plant response rating [16, 23]: 95
Plant response rating, Johnsongrass [17, 18]: 100
Plant response rating, Johnsongrass [17, 19]: 90
Plant response rating, Johnsongrass [17, 20]: 95
Johnsongrass plant response rating [17, 25]: 100
Plant response rating, Johnsongrass [17, 21]: 20
Plant response rating, Johnsongrass [17, 22]: 75
Johnsongrass plant response rating [17, 23]: 98
